Data as given in PubChem BioAssay AID248 (DTP/NCI, 2004).
Values joined by “and” are separate entries in the source; they are usually repeats but may differ in a detail not shown here. Equal values may be shown once. Toxic doses and inconclusive results are not listed. Cut-off read from the data, not from the text of the source: active = T/C of 150% or more; inactive = T/C below 125%.

Tested on: L1210 leukemia ip in BDF1 mice, survival T/C
Assay: NCI In Vivo Anticancer Drug Screen. Data for tumor model L1210 Leukemia (intraperitoneal) in B6D2F1 (BDF1) mice
Details: endpoint: mean survival time, higher = longer survival
Procedure, shortened: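 Tumor cells were implanted, animals were treated, and survival was followed. The result divides the treated measurement by the vehicle-control measurement.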

[1] = dose: 100.0 mg/kg/injection, schedule: Q01DX009 (ip), vehicle: Klucel (hydroxypropylcellulose) (HPC)
[2] = dose: 100.0 mg/kg/injection, schedule: Q04DX002 (ip), vehicle: Klucel (hydroxypropylcellulose) (HPC)
[3] = dose: 100.0 mg/kg/injection, schedule: Q01DX001 (ip), vehicle: saline
[4] = dose: 200.0 mg/kg/injection, schedule: Q01DX001 (ip), vehicle: saline
[5] = dose: 400.0 mg/kg/injection, schedule: Q01DX001 (ip), vehicle: saline
[6] = dose: 100.0 mg/kg/injection, schedule: Q04DX003 (ip), vehicle: saline
[7] = dose: 200.0 mg/kg/injection, schedule: Q04DX003 (ip), vehicle: saline
[8] = dose: 100.0 mg/kg/injection, schedule: Q04DX002 (ip), vehicle: saline with Tween-80
[9] = dose: 100.0 mg/kg/injection, schedule: Q04DX003 (ip), vehicle: saline with Tween-80
[10] = dose: 200.0 mg/kg/injection, schedule: Q04DX002 (ip), vehicle: saline with Tween-80
[11] = dose: 200.0 mg/kg/injection, schedule: Q04DX003 (ip), vehicle: saline with Tween-80
[12] = dose: 400.0 mg/kg/injection, schedule: Q04DX002 (ip), vehicle: saline with Tween-80
[13] = dose: 400.0 mg/kg/injection, schedule: Q04DX003 (ip), vehicle: saline with Tween-80
[14] = dose: 25.0 mg/kg/injection, schedule: Q01DX009 (ip), vehicle: saline
[15] = dose: 50.0 mg/kg/injection, schedule: Q01DX009 (ip), vehicle: saline
[16] = dose: 100.0 mg/kg/injection, schedule: Q01DX001 (ip), vehicle: carboxymethylcellulose (CMC)
[17] = dose: 200.0 mg/kg/injection, schedule: Q01DX001 (ip), vehicle: carboxymethylcellulose (CMC)
[18] = dose: 400.0 mg/kg/injection, schedule: Q01DX001 (ip), vehicle: carboxymethylcellulose (CMC)

Measured: T/C

N/N=C(\N)NN
inactive: dose: 15.0 mg/kg/injection, schedule: Q01DX Z (ip), vehicle: methylcellulose (MC) 102 % of control | dose: 30.0 mg/kg/injection, schedule: Q01DX Z (ip), vehicle: methylcellulose (MC) 100 % of control | dose: 60.0 mg/kg/injection, schedule: Q01DX Z (ip), vehicle: methylcellulose (MC) 102 % of control | dose: 120.0 mg/kg/injection, schedule: Q01DX Z (ip), vehicle: methylcellulose (MC) 105 % of control | dose: 240.0 mg/kg/injection, schedule: Q01DX Z (ip), vehicle: methylcellulose (MC) 114 % of control | dose: 240.0 mg/kg/injection, schedule: Q01DX Z (oral), vehicle: methylcellulose (MC) 95 % of control | dose: 420.0 mg/kg/injection, schedule: Q01DX Z (oral), vehicle: methylcellulose (MC) 100 % of control | dose: 480.0 mg/kg/injection, schedule: Q01DX Z (ip), vehicle: methylcellulose (MC) 103 % of control | dose: 600.0 mg/kg/injection, schedule: Q01DX Z (oral), vehicle: methylcellulose (MC) 105 % of control | dose: 720.0 mg/kg/injection, schedule: Q01DX Z (ip), vehicle: methylcellulose (MC) 119 % of control

Cc1ccc(Nc2c3ccccc3nc3ccccc23)cc1C
inactive: dose: 25.0 mg/kg/injection, schedule: Q01DX009 (ip), vehicle: Klucel (hydroxypropylcellulose) (HPC) 94 % of control | dose: 50.0 mg/kg/injection, schedule: Q01DX009 (ip), vehicle: Klucel (hydroxypropylcellulose) (HPC) 91 % of control | [1] 102 % of control | [2] 100 % of control

CCC(O)C(C)CO (centres undefined)
inactive: [3] 103 % of control | [4] 121 % of control | [5] 97 % of control

Cc1ccc(S(=O)(=O)N(CCCc2c(N)nc(N)nc2-c2ccccc2)c2ccccc2)cc1
inactive: [6] 100 % of control | [7] 97 % of control

CC(=O)c1cccc(NC(=O)Oc2ccc(-c3ccccc3)cc2)c1
inactive: dose: 100.0 mg/kg/injection, schedule: Q01DX001 (ip), vehicle: saline with Tween-80 98 % of control | dose: 100.0 mg/kg/injection, schedule: Q01DX009 (ip), vehicle: saline with Tween-80 100 % of control and 90 % of control | [8] 96 % of control and 98 % of control | [9] 90 % of control | dose: 200.0 mg/kg/injection, schedule: Q01DX001 (ip), vehicle: saline with Tween-80 90 % of control | dose: 200.0 mg/kg/injection, schedule: Q01DX009 (ip), vehicle: saline with Tween-80 95 % of control | [10] 93 % of control and 98 % of control | [11] 92 % of control | dose: 400.0 mg/kg/injection, schedule: Q01DX009 (ip), vehicle: saline with Tween-80 90 % of control | [12] 91 % of control | [13] 93 % of control

O=C(Nc1cc(F)ccc1F)Oc1cccnc1
inactive: dose: 25.0 mg/kg/injection, schedule: Q01DX001 (ip), vehicle: Klucel (hydroxypropylcellulose) (HPC) 102 % of control | dose: 25.0 mg/kg/injection, schedule: Q04DX003 (ip), vehicle: Klucel (hydroxypropylcellulose) (HPC) 107 % of control | dose: 50.0 mg/kg/injection, schedule: Q01DX001 (ip), vehicle: Klucel (hydroxypropylcellulose) (HPC) 104 % of control | dose: 50.0 mg/kg/injection, schedule: Q04DX003 (ip), vehicle: Klucel (hydroxypropylcellulose) (HPC) 106 % of control | dose: 75.0 mg/kg/injection, schedule: Q01DX009 (ip), vehicle: Klucel (hydroxypropylcellulose) (HPC) 103 % of control and 108 % of control | dose: 100.0 mg/kg/injection, schedule: Q01DX001 (ip), vehicle: Klucel (hydroxypropylcellulose) (HPC) 96 % of control | [1] 95 % of control and 109 % of control | [2] 95 % of control and 105 % of control | dose: 100.0 mg/kg/injection, schedule: Q04DX003 (ip), vehicle: Klucel (hydroxypropylcellulose) (HPC) 97 % of control | dose: 150.0 mg/kg/injection, schedule: Q01DX009 (ip), vehicle: Klucel (hydroxypropylcellulose) (HPC) 107 % of control | dose: 200.0 mg/kg/injection, schedule: Q01DX009 (ip), vehicle: Klucel (hydroxypropylcellulose) (HPC) 100 % of control | dose: 200.0 mg/kg/injection, schedule: Q04DX002 (ip), vehicle: Klucel (hydroxypropylcellulose) (HPC) 100 % of control and 108 % of control | dose: 400.0 mg/kg/injection, schedule: Q04DX002 (ip), vehicle: Klucel (hydroxypropylcellulose) (HPC) 94 % of control and 87 % of control

O=C1CC(N2C(=O)C3C4CCC(O4)C3C2=O)C(=O)N1 (centres undefined)
inactive: [9] 100 % of control | [11] 108 % of control | [13] 104 % of control

O=CNc1ccccc1
inactive: [9] 96 % of control | [11] 98 % of control | [13] 98 % of control

CC1=C/C(=N/N(C)C)CC(C)C1 (centres undefined)
inactive: dose: 12.5 mg/kg/injection, schedule: Q01DX009 (ip), vehicle: saline 96 % of control | [14] 102 % of control | [15] 95 % of control | [6] 100 % of control | [7] 109 % of control | dose: 400.0 mg/kg/injection, schedule: Q04DX003 (ip), vehicle: saline 112 % of control

CCCC(=O)CCNC
inactive: [3] 103 % of control | [4] 94 % of control | [5] 111 % of control

CCCC(CNC(=O)OCC)(CNC(=O)OCC)c1ccccc1
inactive: [16] 94 % of control | [17] 94 % of control | [18] 105 % of control

CCN(N=O)C(=O)NC1C(O)OC(CO)C(O)C1O (centres undefined)
inactive: dose: 25.0 mg/kg/injection, schedule: Q01DX009 (ip), vehicle: other 100 % of control | dose: 50.0 mg/kg/injection, schedule: Q01DX009 (ip), vehicle: other 118 % of control | dose: 100.0 mg/kg/injection, schedule: Q01DX009 (ip), vehicle: other 113 % of control | dose: 200.0 mg/kg/injection, schedule: Q01DX009 (ip), vehicle: other 112 % of control

CCN(CC)CC(C)OC(=O)CCN1CC1 (centres undefined)
inactive: dose: 3.0 mg/kg/injection, schedule: Q01DX009 (ip), vehicle: saline 100 % of control | dose: 6.0 mg/kg/injection, schedule: Q01DX009 (ip), vehicle: saline 106 % of control | dose: 12.0 mg/kg/injection, schedule: Q01DX009 (ip), vehicle: saline 103 % of control | [14] 101 % of control | dose: 25.0 mg/kg/injection, schedule: Q04DX003 (ip), vehicle: saline 108 % of control | [15] 95 % of control | dose: 50.0 mg/kg/injection, schedule: Q04DX003 (ip), vehicle: saline 101 % of control | [6] 97 % of control and 111 % of control | [7] 103 % of control

CC1=CC(=O)C2(C)C(C)=C(C)C12C (centres undefined)
inactive: dose: 50.0 mg/kg/injection, schedule: Q04DX003 (ip), vehicle: saline with Tween-80 99 % of control | dose: 75.0 mg/kg/injection, schedule: Q01DX001 (ip), vehicle: saline 105 % of control | [9] 94 % of control | dose: 150.0 mg/kg/injection, schedule: Q01DX001 (ip), vehicle: saline 111 % of control | dose: 300.0 mg/kg/injection, schedule: Q01DX001 (ip), vehicle: saline 97 % of control

O=S(=O)(c1ccccc1)C1CCCCC1Cl (centres undefined)
inactive: [16] 95 % of control | [17] 98 % of control | [18] 101 % of control

O=C(CCOCc1ccccc1)N1Cc2cc3ccccc3nc2C1
inactive: dose: 10.0 mg/kg/injection, schedule: Q04DX003 (ip), vehicle: alcohol 96 % of control | dose: 20.0 mg/kg/injection, schedule: Q04DX003 (ip), vehicle: alcohol 97 % of control | dose: 40.0 mg/kg/injection, schedule: Q04DX003 (ip), vehicle: alcohol 92 % of control | dose: 80.0 mg/kg/injection, schedule: Q04DX003 (ip), vehicle: alcohol 103 % of control | dose: 160.0 mg/kg/injection, schedule: Q04DX003 (ip), vehicle: alcohol 92 % of control

CC1=[N+](CCS(C)(=O)=O)C(C)CCC1 (centres undefined)
inactive: dose: 50.0 mg/kg/injection, schedule: Q01DX001 (ip), vehicle: saline 115 % of control | [3] 110 % of control | [4] 106 % of control | [5] 106 % of control

NOC(=O)c1cccc(Cl)c1
inactive: [8] 94 % of control | [10] 105 % of control | [12] 96 % of control
